Experimental data taken from ChEMBL document CHEMBL1201862, “PubChem BioAssay data set” (2004).
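The compound was tested at five concentrations on cells cultured in 96-well plates, with a 48-hour exposure period. At the GI50, growth is halved.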 Active and inactive are the calls of the source. Rule as the data show it: active = GI50 up to about 1.1 µM and inactive = higher.

Tests used:
Assay in all cases: growth of human tumour cells (NCI), 48 h
[1] = test system: 786-0
[2] = test system: ACHN
[3] = test system: BT-549
[4] = test system: HCT-116
[5] = test system: HOP-62
[6] = test system: HT-29
[7] = test system: IGROV-1
[8] = test system: LOX IMVI
[9] = test system: NCI-H23
[10] = test system: NCI-H460
[11] = test system: OVCAR-3
[12] = test system: PC-3
[13] = test system: SF-295
[14] = test system: SK-MEL-28
[15] = test system: SW-620
[16] = test system: UACC-62
[17] = test system: UO-31
[18] = test system: MCF7
[19] = test system: RPMI-8226
[20] = test system: DU-145

Measured: GI50

Cc1ncc(COP(=O)(O)O)c(C)c1O
inactive: [1] > 100 µM | [2] > 100 µM | [3] > 100 µM | [4] > 100 µM | [5] > 100 µM | [6] > 100 µM | [7] > 100 µM | [8] > 100 µM | [9] > 100 µM | [10] > 100 µM | [11] > 100 µM | [12] > 100 µM | [13] > 100 µM | [14] > 100 µM | [15] > 100 µM | [16] > 100 µM | [17] > 100 µM

O=C1C(NCCc2cc(Cl)c(O)c(Cl)c2)=CC(=O)c2[nH]cnc21
inactive: [1] 55.5 µM | [2] 47 µM | [3] 33.7 µM | [4] 27.1 µM | [5] 44 µM | [6] 40.4 µM | [7] 18.5 µM | [8] 35.2 µM | [18] 26.9 µM | [9] 17.9 µM | [10] 26.5 µM | [11] 17.7 µM | [12] 45.9 µM | [19] 46.7 µM | [13] 18 µM | [14] 28 µM | [15] 47.8 µM | [16] 18.8 µM | [17] > 100 µM

CC(=O)/C=C(/C=N/O)c1ccccc1
inactive: [1] > 100 µM | [2] > 100 µM | [3] > 100 µM | [4] > 100 µM | [5] > 100 µM | [6] > 100 µM | [7] > 100 µM | [8] > 100 µM | [18] > 100 µM | [9] > 100 µM | [10] > 100 µM | [11] > 100 µM | [12] > 100 µM | [19] > 100 µM | [13] > 100 µM | [14] > 100 µM | [15] > 100 µM | [16] > 100 µM | [17] > 100 µM

O=C(O)c1ccccc1/C=N/N=C1NCCN1
inactive: [1] > 100 µM | [2] 98.9 µM | [3] > 100 µM | [4] > 100 µM | [5] > 100 µM | [6] > 100 µM | [7] > 100 µM | [8] > 100 µM | [18] 91.2 µM | [9] > 100 µM | [10] > 100 µM | [11] > 100 µM | [12] > 100 µM | [19] 39.7 µM | [13] > 100 µM | [14] > 100 µM | [15] > 100 µM | [16] > 100 µM | [17] 44.4 µM

N#CCc1nc2cc(C(F)(F)F)ccc2s1
inactive: [1] 37.3 µM | [2] 56 µM | [3] 31 µM | [20] 48.3 µM | [4] 26.7 µM | [5] 73.3 µM | [6] 37.7 µM | [8] 26.4 µM | [9] 27.7 µM | [11] 18.3 µM | [19] 29.4 µM | [13] 49.4 µM | [15] 56.4 µM

N#Cc1nc(CSCc2ccccc2)oc1N
inactive: [1] > 100 µM | [2] > 100 µM | [3] > 100 µM | [20] > 100 µM | [4] > 100 µM | [5] > 100 µM | [6] > 100 µM | [7] > 100 µM | [18] > 100 µM | [9] > 100 µM | [10] > 100 µM | [11] > 100 µM | [12] > 100 µM | [13] > 100 µM | [14] > 100 µM | [15] > 100 µM | [16] > 100 µM | [17] > 100 µM

N#CC(Cc1ccccc1)N(CCC1=CCCCC1)Cc1ccccc1 (configuration not stated)
inactive: [1] > 100 µM | [2] > 100 µM | [3] 71.9 µM | [20] > 100 µM | [4] 36.8 µM | [5] > 100 µM | [6] 32.2 µM | [7] 81.1 µM | [18] 31.2 µM | [9] 56.8 µM | [10] 62.2 µM | [11] 81.7 µM | [12] 51.1 µM | [19] 17.9 µM | [13] 61.5 µM | [14] 68.4 µM | [15] 41.1 µM | [16] 81.3 µM | [17] > 100 µM

O=C(c1cccnc1)N1N=C(c2ccc(Cl)cc2)CC1(O)c1cc(F)c(Cl)cc1Cl (configuration not stated)
inactive: [1] 17.9 µM | [2] 18.8 µM | [3] 24.6 µM | [20] 16.9 µM | [4] 8.3 µM | [5] 21.5 µM | [6] 14.8 µM | [7] 1.65 µM | [8] 15.1 µM | [9] 18.5 µM | [10] 21.5 µM | [11] 6.5 µM | [12] 12.9 µM | [19] 12.2 µM | [13] 19.5 µM | [14] 23.6 µM | [15] 22.2 µM | [17] 15.9 µM

CCC(C)(C)c1ccc(OCCCCNC(=O)c2ccc3ccccc3c2O)c(C(C)(C)CC)c1
inactive: [1] 15.1 µM | [2] 16 µM | [3] 30.8 µM | [20] 54.7 µM | [4] 17.6 µM | [5] 33 µM | [6] 44.7 µM | [7] 31.2 µM | [18] 28.3 µM | [9] 23.7 µM | [10] 23.1 µM | [11] 19.4 µM | [12] 6.08 µM | [13] 48.3 µM | [14] 13.6 µM | [15] 18.3 µM | [16] 16.3 µM | [17] 29.3 µM

O=C(O)Cn1ccc(=O)c2cc([N+](=O)[O-])ccc21
inactive: [1] > 100 µM | [2] > 100 µM | [3] > 100 µM | [20] 38.1 µM | [4] > 100 µM | [5] > 100 µM | [6] > 100 µM | [7] > 100 µM | [18] > 100 µM | [9] > 100 µM | [10] > 100 µM | [11] > 100 µM | [12] > 100 µM | [13] > 100 µM | [14] > 100 µM | [15] > 100 µM | [16] > 100 µM | [17] > 100 µM

COc1nc(N(C)C)nc2c1[n+](C)cn2C [HETEROMINE A]
inactive: [1] 48.3 µM | [2] > 100 µM | [3] 28.7 µM | [20] > 100 µM | [4] 77.8 µM | [5] > 100 µM | [6] > 100 µM | [7] > 100 µM | [8] 84.5 µM | [9] 22.4 µM | [10] 44.2 µM | [11] 47 µM | [12] > 100 µM | [19] 6.08 µM | [13] 38.9 µM | [14] 88.9 µM | [15] 57.5 µM | [16] > 100 µM | [17] > 100 µM
